Common to all, as to format: cell-based
The test system of assay [1] is CFPAC-1 (human pancreatic cancer cell). As to the kind of experiment: Cell viability assay (Promega CellTiter-Glo), inhibitory effect on CFPAC-1. To be noted: 72 h, 3 days of culture. The essentials: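 Viability readout via ATP content (CellTiter-Glo) after 3-day exposure to gradient-diluted compounds; IC50 reported. Cells: CFPAC-1, grown in IMDM plus 10% fetal bovine serum.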

The test system of assay [2] is GB-1 (human brain glioblastoma cell). As to the kind of experiment: Cell viability assay (Promega CellTiter-Glo), inhibitory effect on GB-1. To be noted: 72 h, 3 days of culture. The essentials:
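Intracellular ATP measured by CellTiter-Glo served as the viability readout for IC50, taken 3 days after adding gradient-diluted compound. Cells were kept in 10% FBS-containing DMEM.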
On the technique in general: In ATP-based viability assays light output follows the ATP content of the culture.

The subject of assay [3] is 786-O (clear cell renal cell adenocarcinoma cell). As to the kind of experiment: Cell viability assay (Promega CellTiter-Glo), inhibitory effect on 786-O. To be noted: Homo sapiens, 786-0, 72 h, 3 days of culture. In short, it runs like this: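 Cell viability determined from ATP content (CellTiter-Glo) after 3-day exposure to compound dilution series, giving IC50. Cells: 786-O clear cell renal adenocarcinoma line in 10% FBS-containing RPMI1640 (+P/S).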

Assay [4] has as its system D341 Med (cerebellar medulloblastoma cell). The assay is described as follows: Cell viability assay (Promega CellTiter-Glo), inhibitory effect on D341 Med. To be noted: Homo sapiens, 72 h, 3 days of culture, read-out: inhibitory effect on brain cell line D341 Med (IC50). The method, then:
(§1) The inhibitory effect of the compounds prepared in the Examples of the present invention on various brain tumor cell lines was detected using cell viability assay reagent.
(§2) Cell viability was detected using the Promega CellTiter-Glo kit, cell viability was determined by directly measuring intracellular ATP content. In the experiment, the IC50 value of the compounds prepared in the Examples of the present invention on various brain tumor cell lines was detected.
(§3) Each tumor cell was cultured in relevant medium. After cell passage, the gradient diluted compounds prepared in the Examples of the present invention was added. After 3 days of culture, the relevant IC50 (50% inhibiting concentration) was measured. The name, source and culture conditions of each tumor cell line were as follows:
Cell line D341 Med (ATCC, No. HTB-187) was cultured in 20% fetal bovine serum-containing EMEM medium (+P/S).

Assay [5] concerns Kelly (brain neuroblastoma cell). As to the kind of experiment: Cell viability assay (Promega CellTiter-Glo), inhibitory effect on Kelly. To be noted: Homo sapiens, 72 h, 3 days of culture, read-out: inhibitory effect on brain cell line Kelly (IC50). The method, then:
as §1, §2, §3
Cell line Kelly (ECACC, No. 92110411) was cultured in 10% fetal bovine serum and 2 mM glutamine-containing RPMI1640 medium.

For assay [6], the system named is sh-DNMT1 NCI-H82 cell (DNMT1 knocked down NCI-H82). As to the kind of experiment: Cell viability assay (Promega CellTiter-Glo), inhibitory effect on sh-DNMT1 NCI-H82 cell. To be noted: Homo sapiens, NCI-H82 with DNMT1 knocked down by shRNA. In short, it runs like this:
(§4)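 Viability measured by CellTiter-Glo in three NCI-H82 variants: empty-vector control, viral NNMT overexpression, and viral shRNA DNMT1 knockdown, each checked by Western blot.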

The subject of assay [7] is SF126 (human glioblastoma multiforme cell). As to the kind of experiment: Cell viability assay (Promega CellTiter-Glo), inhibitory effect on SF126. In short, it runs like this: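 IC50 reflects 50% loss of CellTiter-Glo ATP signal in SF126 glioblastoma cells. Cells were cultured in 10% FBS-containing EMEM and treated with serially diluted compound for 3 days.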
Assay [8] relates to SW48 (human colon adenocarcinoma cell). As to the kind of experiment: Cell viability assay (Promega CellTiter-Glo), inhibitory effect on SW48. To be noted: 72 h, 3 days of culture. The essentials:
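IC50 derived from CellTiter-Glo ATP luminescence after 3-day culture with a compound dilution series; cells kept in Leibovitz's L-15 plus 10% fetal bovine serum.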

In assay [9] the test system is MDA-MB-453 (breast cancer cell). The assay is described as follows: Cell viability assay (Promega CellTiter-Glo), inhibitory effect on MDA-MB-453. To be noted: Homo sapiens, 72 h, 3 days of culture. The essentials: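 IC50 comes from ATP-based CellTiter-Glo viability measured after 3 days of exposure to graded compound concentrations. Cultures were kept in L-15 medium containing 10% fetal bovine serum.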

The test system of assay [10] is G-401 (human renal carcinoma Wilms cell). The assay is described as follows: Cell viability assay (Promega CellTiter-Glo), inhibitory effect on G-401. Particulars: 72 h, 3 days of culture. The essentials: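 IC50 comes from luminescent ATP-based viability measured after 3 days of exposure to serially diluted compound. Cultures were kept in McCoy's 5a medium containing 10% fetal bovine serum.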

Assay [11] relates to ov-NNMT NCI-H82 cell (NNMT protein-overexpressing NCI-H82). As to the kind of experiment: Cell viability assay (Promega CellTiter-Glo), inhibitory effect on ov-NNMT NCI-H82 cell. To be noted: Homo sapiens. The essentials: as §4
For assay [12], the system named is NCI-H82 (human small cell lung cancer cell). As to the kind of experiment: Cell viability assay (Promega CellTiter-Glo), inhibitory effect on NCI-H82. Particulars: 72 h, 3 days of culture. In short, it runs like this:
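After 3 days of culture with graded compound doses, ATP-based luminescence (CellTiter-Glo) gave the viability of human small cell lung cancer NCI-H82 cells, maintained in 10% FBS-containing RPMI1640. IC50 is the 50% inhibiting concentration.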

The test system of assay [13] is Con-NCI-H82 cell (NCI-H82 transfected with empty virus vector). The assay is described as follows: Cell viability assay (Promega CellTiter-Glo), inhibitory effect on Con-NCI-H82 cell. Particulars: Homo sapiens; NCI-H82 transfected with empty virus vector (control); CellTiter-Glo; read-out: inhibitory effect on Con-NCI-H82 (IC50). In short, it runs like this:
as §4

In assay [14] the test system is NB-1 (brain neuroblastoma cell). As to the kind of experiment: Cell viability assay (Promega CellTiter-Glo), inhibitory effect on NB-1. To be noted: Homo sapiens, 72 h, 3 days of culture, read-out: inhibitory effect on brain cell line NB-1 (IC50). The method, then: as §1, §2, §3
Cell line NB-1 (ATCC, No. HTB-131) was cultured in 10% fetal bovine serum-containing Leibovitz's L-15 medium (+P/S).

[15] abbreviates: Table 3, read-out: inhibitory effect on GB-1 (IC50).
Setting [16] is: Table 4, read-out: inhibitory effect on brain cell line GB-1 (IC50).
The mark [17] stands for this setting: 72 h, SF-126, 3 days of culture, Table 3, read-out: inhibitory effect on SF-126 (IC50).
The mark [18] stands for this setting: SF-126, 72 h, SF126, 3 days of culture, Table 4, read-out: inhibitory effect on brain cell line SF126 (IC50).

SMILES strings stand for the structures. Where two headings read alike, the source gives them in different places.

By IC50 is commonly meant the concentration that gives 50% inhibition. For the molecule `CCCCCCCc1c2[n+](cc3c(OC)c(OC)ccc13)CCc1cc3c(cc1-2)OCO3` [compound AB31760], the half-inhibitory concentration (IC50) in assay [1] amounted to 2710 nM; in assay [2] (setting [15]), 3670 nM; in [2] (setting [16]), 3670 nM; in assay [3], 1600 nM; in assay [4], 700 nM; in assay [5], 230 nM. Moreover, the IC50 in assay [6] worked out at 710 nM; in assay [7] (setting [17]), 3890 nM; in assay [7] (setting [18]), 3890 nM; in assay [8], 210 nM; in [9] it was 250 nM; in assay [10] it was 150 nM. For the same molecule, the IC50 is 350 nM in assay [11], 150 nM in assay [12], 150 nM in assay [13] and 90 nM in assay [14].
Take `COc1ccc2c(CCC(C)C)c3[n+](cc2c1OC)CCc1cc2c(cc1-3)OCO2` [compound AB31765]: the IC50 in [1] is 21700 nM; in assay [2] (setting [15]), 14800 nM; in [2] (setting [16]) it was 14800 nM; in assay [3], 9090 nM; in [4], 1630 nM; in [5] it was 1290 nM. Moreover, the IC50 in assay [6] turned out to be 4050 nM; in assay [7] (setting [17]), 9800 nM; in assay [7] (setting [18]) it was 9800 nM; in assay [8], 1160 nM; in [9], 1070 nM; in assay [10], 1270 nM. Also, the IC50 in assay [11] came out at 2880 nM; in assay [12], 1340 nM; in assay [13], 1340 nM; in assay [14], 300 nM.
Regarding `CCCCCCc1c2c(OC)c(OC)ccc2cc2[n+]1CCc1cc3c(cc1-2)OCO3` [compound AB31767], the IC50 was 4310 nM in [1]; 3610 nM in assay [2] (setting [15]); 3610 nM in assay [2] (setting [16]); 2100 nM in [3]; 570 nM in assay [4]; 300 nM in assay [5]. Further, the IC50 came out at 980 nM in [6]; 3700 nM in [7] (setting [17]); 3700 nM in assay [7] (setting [18]); 370 nM in assay [8]; 270 nM in assay [9]; 180 nM in assay [10]. In addition, the IC50 in assay [11] came out at 650 nM; in assay [12], 260 nM; in [13] it was 260 nM; in assay [14] it was 120 nM.
With `COc1ccc2cc3[n+](cc2c1OC(=O)CC12CC4CC(CC(C4)C1)C2)CCc1cc2c(cc1-3)OCO2` [compound AB31771], the half-inhibitory concentration (IC50) in assay [1] stood at 17100 nM; in assay [2] (setting [15]) it was 11200 nM; in assay [2] (setting [16]), 11200 nM; in assay [3], 20800 nM; in assay [4], 1660 nM; in assay [5] it was 2210 nM. Moreover, the 50% inhibitory concentration (IC50) amounted to 5810 nM in assay [6]; 15700 nM in assay [7] (setting [17]); 15700 nM in assay [7] (setting [18]); 1370 nM in assay [8]; 350 nM in [9]; 2040 nM in assay [10]. The IC50 came out at 3940 nM in assay [11], 1870 nM in assay [12], 1870 nM in assay [13] and 1040 nM in assay [14].
For the molecule `COc1ccc2c(CCc3ccccc3)c3[n+](cc2c1OC)CCc1cc2c(cc1-3)OCO2` [compound AB31780], the IC50 in [1] is 17900 nM; in [2] (setting [15]), 12600 nM; in assay [2] (setting [16]) it was 12600 nM; in assay [3], 8050 nM; in assay [4], 1880 nM; in assay [5] it was 1160 nM. The IC50 in assay [6] amounted to 1980 nM; in assay [7] (setting [17]), 9750 nM; in [7] (setting [18]), 9750 nM; in assay [8] it was 790 nM; in [9] it was 900 nM; in assay [10], 880 nM. The IC50 was found to be 1520 nM in [11], 660 nM in assay [12], 660 nM in assay [13] and 230 nM in assay [14].
`COc1ccc2c(CCCc3ccccc3)c3[n+](cc2c1OC)CCc1cc2c(cc1-3)OCO2` [compound AB31781]: the IC50 came to 11300 nM in assay [1]; 8600 nM in assay [2] (setting [15]); 8600 nM in assay [2] (setting [16]); 5340 nM in [3]; 820 nM in assay [4]; 730 nM in assay [5]. Besides, the concentration for half-maximal inhibition (IC50) in assay [6] was determined as 1420 nM; in assay [7] (setting [17]), 7480 nM; in [7] (setting [18]), 7480 nM; in [8], 400 nM; in [9] it was 760 nM; in assay [10] it was 370 nM. The IC50 in [11] was determined as 1160 nM; in [12], 330 nM; in assay [13], 330 nM; in assay [14], 140 nM.
As for `COc1ccc2cc3[n+](cc2c1OCCCCCCBr)CCc1cc2c(cc1-3)OCO2` [compound AB31787], the IC50 in assay [1] worked out at 6630 nM; in assay [2] (setting [15]), 4230 nM; in assay [2] (setting [16]) it was 4230 nM; in [3], 4090 nM; in [4], 330 nM; in assay [5], 690 nM. Also, the IC50 is 1310 nM in assay [6]; 4290 nM in [7] (setting [17]); 4290 nM in [7] (setting [18]); 480 nM in assay [8]; 280 nM in assay [9]; 490 nM in [10]. In addition, the IC50 in [11] was found to be 880 nM; in [12], 340 nM; in [13], 340 nM; in [14] it was 80 nM.
Turning to `COc1ccc2c(Cc3ccc(OC(F)(F)F)cc3)c3[n+](cc2c1OC)CCc1cc2c(cc1-3)OCO2` [compound AB31788], the IC50 in assay [1] turned out to be 16800 nM; in [2] (setting [15]) it was 16500 nM; in assay [2] (setting [16]), 16500 nM; in assay [3], 10800 nM; in assay [4], 1880 nM; in assay [5], 1300 nM. In addition, the IC50 turned out to be 2950 nM in [6]; 10900 nM in assay [7] (setting [17]); 10900 nM in [7] (setting [18]); 690 nM in assay [8]; 1030 nM in assay [9]; 630 nM in [10]. For the same molecule, the IC50 in assay [11] is 2420 nM; in assay [12] it was 710 nM; in assay [13] it was 710 nM; in assay [14] it was 310 nM.

(Values after patent US20250195502A1, “APPLICATION OF TETRACYCLIC COMPOUND IN TREATMENT OF TUMORS” (SHANGHAI SHIJIANG BIOTECHNOLOGY CO., LTD, priority 2022, published 2025).)
